SMILES strings stand for the structures.

The text below walks through data of patent publication US20110105472A1, “Diaminopyrimidines as crop protection agents” (Bayer CropScience AG, priority 2008, published 2011).

The first data set is described as follows: logP by LC-MS, method [b], acidic range pH 2.7. The data set is classed as physicochemical. The following applies: method [b], LC-MS, acidic range pH 2.7.
Turning to `CCS(=O)(=O)c1nc2ccc(Nc3ncc(Br)c(NC4CCC4)n3)cc2s1` [Compound 3], the log p was 2.91[b].

Staying with this data set, now noted: pH 2.7.
On to `FC(F)(F)Oc1cccc(Nc2ncc(Br)c(NC3CCC3)n2)c1` [compound 182], for which the log p was 4.15[b].

With `CC1(Nc2nc(Nc3ccccc3)ncc2C(F)(F)F)CCC1` [compound 232], the log p was 3.36[b].

`CCOC(=O)Nc1ccc(Nc2ncc(Br)c(NC3CCC3)n2)cc1O` [compound 151]: the log p is 1.8[b].

Turning to `COC(=O)c1ccc(Nc2ncc(Br)c(NC3CCC3)n2)cc1` [compound 158], the log p was 2.84[b].

Regarding `N#Cc1ccc(Nc2ncc(Cl)c(NC3CCC3)n2)cc1` [Compound 111], the log p is 2.77[b].

Consider `COc1cc(Nc2ncc(Br)c(NC3CCC3)n2)ccc1F` [Compound 31], for which the log p is 2.41[b].

With `COc1ccc(Nc2ncc(Br)c(NC3CCC3)n2)cc1` [Compound 208], the log p is 1.8[b].

With `O=C1OCCN1c1ccc(Nc2ncc(Br)c(NC3CCC3)n2)cc1` [Compound 173], the log p is 1.62[b].

On to `O=C(c1ccc(Nc2ncc(Br)c(NC3CCC3)n2)cc1)C(F)(F)F` [Compound 197], for which the log p was 4.41[b].

`Brc1ccc(Nc2ncc(Br)c(NC3CCC3)n2)cc1` [compound 67]: the log p was 3.18[b].

As to `COC(=O)Nc1ccc(Nc2ncc(Cl)c(NC3CCC3)n2)cc1` [Compound 135], the log p is 1.61[b].

As for `CC(C)(CCl)C(=O)Nc1ccc(Nc2ncc(Br)c(NC3CCC3)n2)cc1` [Compound 165], the log p was 2.16[b].

In the case of `Fc1cc(C(F)(F)F)ccc1Nc1ncc(Br)c(NC2CCC2)n1` [Compound 63], the log p was 3.9[b].

Consider `O=C1CCc2cc(Nc3ncc(Br)c(NC4CCC4)n3)ccc21` [compound 9], for which the log p was 2.59[b].

Consider `CS(=O)(=O)c1cccc(Nc2ncc(Br)c(NC3CCC3)n2)c1` [Compound 265], for which the log p was 2.07[b].

For the compound `CN(C)S(=O)(=O)c1cccc(Nc2ncc(Br)c(NC3CCC3)n2)c1` [Compound 157], the log p was 2.53[b].

Take `FC(F)Oc1ccc(Nc2ncc(Br)c(NC3CCC3)n2)cc1` [Compound 75]: the log p is 2.5[b].

Regarding `Oc1ccc(Nc2ncc(Br)c(NC3CCC3)n2)cc1` [compound 37], the log p is 1.27[b].

Turning to `CCOc1ccc(Nc2ncc(Br)c(NC3CCC3)n2)cc1` [Compound 35], the log p is 2.17[b].

For `CC(=O)CCc1cccc(Nc2ncc(Cl)c(NC3CCC3)n2)c1` [Compound 256], the log p was 1.98[b].

As for `Cc1cccc(Nc2ncc(Cl)c(NC3CCC3)n2)c1` [Compound 231], the log p is 2.33[b].

Take `Cc1cc(Nc2ncc(Br)c(NC3CCC3)n2)ccc1O` [Compound 201]: the log p is 1.59[b].

`CCN(C(C)=O)c1ccc(Nc2ncc(Br)c(NC3CCC3)n2)cc1` [Compound 93]: the log p is 1.92[b].

`CCN(C)C(=O)c1ccc(Nc2ncc(Cl)c(NC3CCC3)n2)cc1` [Compound 246]: the log p was 1.85[b].

In the case of `CC(C)(C)C(=O)Cc1ccc(Nc2ncc(Br)c(NC3CCC3)n2)cc1` [Compound 104], the log p was 2.63[b].

For `O=C(Nc1cccc(Nc2ncc(Br)c(NC3CCC3)n2)c1)Oc1ccccc1` [compound 199], the log p is 2.51[b].

`CC(=O)Cc1ccc(Nc2ncc(Cl)c(NC3CCC3)n2)cc1` [Compound 244]: the log p is 1.75[b].

Consider `CS(=O)(=O)Nc1ccc(Nc2ncc(Br)c(NC3CCC3)n2)cc1` [Compound 85], for which the log p is 1.61[b].

As to `FC1(F)Oc2ccc(Nc3ncc(Br)c(NC4CCC4)n3)cc2OC1(F)F` [Compound 18], the log p is 4.56[b].

With `C=CC(=O)Nc1cccc(Nc2ncc(Br)c(NC3CCC3)n2)c1` [Compound 82], the log p is 1.71[b].

In the case of `N#CCc1cccc(Nc2ncc(C(F)(F)F)c(NC3CCC3)n2)c1` [Compound 226], the log p was 3.01[b].

Consider `COC(=O)Nc1cccc(Nc2ncc(Br)c(NC3CCC3)n2)c1` [Compound 106], for which the log p is 1.83[b].

Take `COc1cccc(Nc2ncc(C(F)(F)F)c(NC3CCC3)n2)c1` [Compound 238]: the log p is 3.48[b].

As for `CN(C)C(=O)c1ccc(Nc2ncc(Cl)c(NC3CCC3)n2)cc1` [Compound 240], the log p is 1.6[b].

As for `O=C(Nc1cccc(Nc2ncc(Br)c(NC3CCC3)n2)c1)c1ccccc1` [compound 168], the log p was 2.46[b].

Regarding `N#CCc1cc(Nc2ncc(Br)c(NC3CCC3)n2)ccc1F` [Compound 219], the log p is 2.2[b].

With `O=S1(=O)CCCN1c1cccc(Nc2ncc(Br)c(NC3CCC3)n2)c1` [Compound 258], the log p was 2.25[b].

Consider `CCOC(=O)Nc1cccc(Nc2ncc(Cl)c(NC3CCC3)n2)c1` [Compound 137], for which the log p was 1.94[b].

Turning to `CC(C)(C)c1cccc(Nc2ncc(Br)c(NC3CCC3)n2)c1` [Compound 254], the log p is 3.67[b].

For `CC(C)(C)c1cccc(Nc2ncc(C(F)(F)F)c(NC3CCC3)n2)c1` [Compound 259], the log p is 4.98[b].

In the case of `O=C(c1ccc(Nc2ncc(Cl)c(NC3CCC3)n2)cc1)N1CCOCC1` [Compound 249], the log p is 1.24[b].

For the compound `CCc1cc(Nc2ncc(Cl)c(NC3CCC3)n2)ccc1C` [Compound 222], the log p was 2.73[b].

`CC(=O)Nc1ccc(Nc2ncc(Br)c(NC3CCC3)n2)cc1Cl` [Compound 186]: the log p is 1.97[b].

In the case of `COc1ccc(Nc2ncc(Cl)c(NC3CCC3)n2)cc1` [Compound 110], the log p is 1.75[b].

Regarding `O=S(=O)(c1cccc(Nc2ncc(Br)c(NC3CCC3)n2)c1)N1CCOCC1` [Compound 147], the log p is 2.46[b].

Turning to `N#CCc1cccc(Nc2ncc(Cl)c(NC3CCC3)n2)c1` [Compound 242], the log p was 1.97[b].

Consider `CC(C)(C)OC(=O)Nc1ccc(Nc2ncc(Br)c(NC3CCC3)n2)cc1` [Compound 162], for which the log p is 2.36[b].

Consider `CN1CCN(c2cccc(Nc3ncc(Cl)c(NC4CCC4)n3)c2)C1=O` [Compound 237], for which the log p is 1.66[b].

`CCc1nc2cc(Nc3ncc(Br)c(NC4CCC4)n3)ccc2o1` [Compound 21]: the log p was 2.06[b].

Consider `OC(c1cccc(Nc2ncc(Br)c(NC3CCC3)n2)c1)C(F)(F)F` (centres unmarked) [Compound 214], for which the log p is 2.17[b].

In the case of `O=C(Nc1ccc(Nc2ncc(Br)c(NC3CCC3)n2)cc1)C(F)(F)F` [Compound 95], the log p was 2.21[b].

With `CC(=O)c1cc(Nc2ncc(Br)c(NC3CCC3)n2)ccc1Cl` [Compound 150], the log p is 2.95[b].

As for `O=c1[nH]c2ccc(Nc3ncc(Cl)c(NC4CCC4)n3)cc2o1` [compound 8], the log p is 1.55[b].

In the case of `FC(F)C(F)(F)Oc1cccc(Nc2ncc(Br)c(NC3CCC3)n2)c1` [compound 170], the log p is 3.37[b].

On to `CC(=O)N(c1ccc(Nc2ncc(Br)c(NC3CCC3)n2)cc1)C1CCCCC1` [compound 163], for which the log p is 2.7[b].

With `O=C1COCCN1c1cccc(Nc2ncc(Br)c(NC3CCC3)n2)c1` [Compound 210], the log p is 1.53[b].

Regarding `CN(C)S(=O)(=O)c1ccc(Nc2ncc(Br)c(NC3CCC3)n2)cc1` [Compound 91], the log p is 2.73[b].

Consider `CC(C)(C)C(=O)Nc1ccc(Nc2ncc(Br)c(NC3CCC3)n2)cc1` [Compound 92], for which the log p was 2.02[b].

For the compound `OC(c1cccc(Nc2ncc(Cl)c(NC3CCC3)n2)c1)C(F)(F)F` (centres unmarked) [Compound 218], the log p was 2.04[b].

Take `CNC(=O)c1cccc(Nc2ncc(Br)c(NC3CCC3)n2)c1` [Compound 192]: the log p is 1.58[b].

Regarding `Brc1cnc(Nc2ccc3cc[nH]c3c2)nc1NC1CCC1` [Compound 2], the log p is 1.7[b].

`O=C1OCCN1c1ccc(Nc2ncc(Cl)c(NC3CCC3)n2)cc1` [compound 132]: the log p is 1.59[b].

Regarding `CNc1cccc(Nc2ncc(Cl)c(NC3CCC3)n2)c1` [Compound 260], the log p is 1.49[b].

Regarding `COc1cccc(Nc2ncc(Cl)c(NC3CCC3)n2)c1` [Compound 109], the log p is 2.06[b].

Regarding `CC(C)(C)C(=O)Nc1cccc(Nc2ncc(Br)c(NC3CCC3)n2)c1` [Compound 99], the log p was 2.11[b].

In the case of `O=C1CCC(=O)N1c1ccc(Nc2ncc(Br)c(NC3CCC3)n2)cc1` [compound 34], the log p was 1.62[b].

`CC(=O)Nc1ccc(Nc2ncc(Cl)c(NC3CCC3)n2)cc1` [Compound 117]: the log p is 1.43[b].

`CC(C)(C)C(=O)Nc1cccc(Nc2ncc(Cl)c(NC3CCC3)n2)c1` [Compound 125]: the log p is 2.04[b].

Turning to `CCc1cccc(Nc2ncc(Cl)c(NC3CCC3)n2)c1` [Compound 251], the log p is 2.67[b].

Regarding `O=C(c1ccc(Nc2ncc(Br)c(NC3CCC3)n2)cc1)N1CCOCC1` [Compound 191], the log p was 1.75[b].

For the compound `COCC(C)Oc1ccc(Nc2ncc(Br)c(NC3CCC3)n2)cc1` (centres unmarked) [Compound 41], the log p was 2.11[b].

`CCN(CC)C(=O)c1cccc(Nc2ncc(Br)c(NC3CCC3)n2)c1` [Compound 252]: the log p is 2.26[b].

For `CCC(=O)c1cc(Nc2ncc(Br)c(NC3CCC3)n2)ccc1O` [compound 194], the log p was 2.39[b].

Turning to `Oc1ccc(Nc2ncc(Br)c(NC3CCC3)n2)cc1F` [Compound 184], the log p was 1.5[b].

For the compound `O=C(NCC(F)(F)F)c1cccc(Nc2ncc(Br)c(NC3CCC3)n2)c1` [Compound 181], the log p is 2.21[b].

As for `C=CCNC(=O)c1ccc(Nc2ncc(Br)c(NC3CCC3)n2)cc1` [Compound 83], the log p is 1.99[b].

For `O=C1CCCN1c1ccc(Nc2ncc(Br)c(NC3CCC3)n2)cc1` [Compound 174], the log p is 1.72[b].

As to `CSc1ccc(Nc2ncc(Br)c(NC3CCC3)n2)cc1Cl` [Compound 73], the log p was 3.5[b].

With `CC(C)c1cccc(Nc2ncc(Br)c(NC3CCC3)n2)c1` [Compound 205], the log p was 3.21[b].
